Measured values: patent publication US10280198B2, “Therapeutic agents for reducing parathyroid hormone levels” (KAI PHARMACEUTICALS, INC., priority 2009, dated 2019)
Square brackets hold non-standard residues; d marks the D form. Peptide text beside a SMILES is read from it. dNle = CCCC[C@@H](N)C(=O)O; dNva = CCC[C@@H](N)C(=O)O

Experiments:
[1] = molecular target: T1, human calcium-sensing receptor (CaSR) (Homo sapiens, UniProt P41180); assay: In vitro cell assay in HEK-293 expressing the human calcium-sensing receptor (IP1 production); type: cell-based; conditions: for EC50: Table 5, IP1 production in HEK293 cells expressing human CaSR, eight concentrations in duplicate, read-out: EC50 in CaSR in vitro assay
T1 construct: expressed in transfected cells; host or cells: HEK 293T cells, transiently transfected (lipofectamine 2000); in some cases HEK293 cells stably transfected
T1 sequence (P41180 20-1078): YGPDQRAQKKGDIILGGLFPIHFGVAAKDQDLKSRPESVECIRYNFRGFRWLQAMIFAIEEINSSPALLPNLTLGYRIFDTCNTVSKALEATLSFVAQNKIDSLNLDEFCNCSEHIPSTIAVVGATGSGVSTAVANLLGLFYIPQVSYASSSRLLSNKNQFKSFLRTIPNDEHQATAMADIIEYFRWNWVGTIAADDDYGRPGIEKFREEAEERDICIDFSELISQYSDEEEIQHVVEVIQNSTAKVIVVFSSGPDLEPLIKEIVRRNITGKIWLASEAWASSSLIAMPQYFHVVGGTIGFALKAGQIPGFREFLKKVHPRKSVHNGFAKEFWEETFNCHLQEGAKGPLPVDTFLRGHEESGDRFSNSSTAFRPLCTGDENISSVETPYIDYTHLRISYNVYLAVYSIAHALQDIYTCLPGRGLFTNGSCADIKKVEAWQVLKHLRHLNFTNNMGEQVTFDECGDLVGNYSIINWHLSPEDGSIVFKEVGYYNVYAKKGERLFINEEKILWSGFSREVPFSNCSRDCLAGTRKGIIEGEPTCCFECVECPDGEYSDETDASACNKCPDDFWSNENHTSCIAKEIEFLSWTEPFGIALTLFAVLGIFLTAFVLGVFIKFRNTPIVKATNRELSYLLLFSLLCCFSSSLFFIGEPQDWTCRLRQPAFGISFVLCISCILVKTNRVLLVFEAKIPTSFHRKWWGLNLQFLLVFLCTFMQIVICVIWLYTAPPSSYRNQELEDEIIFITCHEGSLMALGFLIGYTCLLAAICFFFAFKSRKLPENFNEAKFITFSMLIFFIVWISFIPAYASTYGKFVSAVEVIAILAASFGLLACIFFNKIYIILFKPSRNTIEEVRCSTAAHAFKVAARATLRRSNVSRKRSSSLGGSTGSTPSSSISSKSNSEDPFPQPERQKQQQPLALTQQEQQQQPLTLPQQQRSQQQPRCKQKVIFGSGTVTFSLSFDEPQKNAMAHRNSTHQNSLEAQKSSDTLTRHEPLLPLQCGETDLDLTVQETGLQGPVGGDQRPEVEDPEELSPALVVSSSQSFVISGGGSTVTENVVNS
Method: The activity of a variety of peptides and conjugates was tested against the human CaSR. These studies were conducted by measuring IP1 production in HEK293 cells that express the human CaSR. Each peptide was tested in eight different concentrations, in duplicates, to establish a dose response curve. Curve fitting was performed using GraphPad Prism. In Table 5, and throughout the specification, residues provided in capital letters are L-amino acids, while lower case letters indicate D-amino acids. “Ac” indicates an acetyl capping group, “NH2” indicates an amide capping group, “Ac-bAla” is an acetylated beta-alanine, “GSH” indicates reduced glutathione, “GS” indicates oxidized glutathione, “PEG” refers to polyethylene glycol, “PEG2” and “PEGS” refer to polyethylene glycol moieties of 2 kDa and 5 kDa, respectively, and “Mpa” refers to mercaptopropionic acid.
The day after, these cells were transfected with human CaSR receptor using lipofectamine 2000 transfection reagent 24 hrs post transfection, cells were seeded in 384 well plates at 8,000 cells/well. […] In some cases, EC50 values were determined by measuring inositol monophosphate production in the HEK293 cells, stably transfected with the human calcium-sensing receptor (see Table 1).
Cells were incubated with compounds at various concentrations (1 mM or 300 μM as the highest and further ½ log serial dilutions) at 37° C. for 1.5 hrs before reaction termination. […] In brief, incubation with the compound was terminated by sequentially adding D2 labeled-IP1 and cryptate-labeled anti-IP1 in lysis buffer and further incubating at room temperature for 60 minutes. […] Non-transfected 293 cells were used as negative control.
IP1 concentrations were calculated from standard curves (generated with Graph Pad Prism ver. 4) using known concentrations of IP1 standards.

plasma PTH = assay: In vivo PTH lowering after IV bolus in isoflurane-anesthetized normal Sprague Dawley rats; design: species or system rat; conditions: normal rats, AUC 1-4 h
Method: The peptides were administered intravenously at a dose of 0.5 mg/kg into isoflurane-anesthetized normal Sprague Dawley rats. A control group of rats was treated with saline. Blood was drawn prior to dosing and every hour for 4 hours. Rats were maintained under isoflurane anesthesia for the entire study. […] Percent PTH reduction was calculated according to the following formula: AUCcmpd treated/AUCsaline control*100.
An intravenous (IV) bolus of saline was used as a control. Plasma (K2EDTA) PTH levels were assessed prior to dosing and 1, 2, 3 and 4 hours after dosing. Rats were maintained under isoflurane anesthesia for the entire study. […] In FIG. 2B, PTH is shown as percent of the baseline pre-dose value.
A series of compounds having an L-amino acid residue substituted for a D-amino acid residue were prepared. The compounds were administered as an IV bolus to normal Sprague Dawley rats at a dose of 0.5 mg/kg. An intravenous (IV) bolus of saline was used as a control. […] Rats were maintained under isoflurane anesthesia for the entire study.

[2] = tested on: rat peritoneal mast cells; assay: In vitro histamine induction in rat peritoneal mast cells; type: cell-based
Method: To further evaluate the relationship between compound structure and histamine release, a series of compounds was prepared and assessed for their ability to trigger induction of histamine in an in vitro assay using rat peritoneal mast cells. In this assay, compounds are incubated at 10 μM for 15 minutes at 37° C. with cells isolated from peritoneal lavage of SD rats. Following incubation, cell medium is collected and histamine is determined.
Accordingly, and as can be appreciated in view of the PTH data and the histamine data described hereinabove, in one embodiment, a compound that has activity to decrease PTH level in a subject in the absence of a histamine response is contemplated. In certain embodiments, absence of a histamine response intends a dose of the compound that produces a less than 10-fold, more preferably 8-fold, still more preferably 5-fold, and even still more preferably 3-fold, increase in histamine, measured in vitro in an assay as described herein, where the fold change is determined based on histamine levels before incubation with the compound and after 15 minutes incubation with compound. In a specific embodiment, the histamine response is determined in an in vitro assay using rat peritoneal mast cells isolated from peritoneal lavage of normal Sprague Dawley rats, and where the fold change is determined based on histamine levels before incubation with the compound and after 15 minutes incubation with compound. In the studies conducted herein, the in vitro evaluation of histamine release was performed using isolated rat peritoneal mast cells isolated by peritoneal lavage using cold HBSS+25 mM HEPES pH 7.4 containing heparin (5 u/mL). Cells were washed twice in stimulation buffer (HBSS+25 mM HEPES pH 7.4) and incubated with 10 μM of compound in stimulation buffer (HBSS+25 mM HEPES pH 7.4) for 15 minutes in a 96-well plate ([…]) at 37° C. Cell supernatant was analyzed for histamine using histamine EIA kit (Cayman #589651).
For in vitro evaluation of histamine release, isolated rat peritoneal mast cells were isolated by performing peritoneal lavage using cold HBSS+25 mM HEPES pH 7.4 containing heparin (5 u/mL). Cells were washed twice in stimulation buffer (HBSS+25 mM HEPES pH 7.4) and incubated with 10 μM of compound in stimulation buffer (HBSS+25 mM HEPES pH 7.4) for 15 minutes in a 96-well plate (10^6/well) at 37° C. Cell supernatant was analyzed for histamine using histamine EIA kit (Cayman #589651).

Compound | Histamine in vitro Fold change of non-treated at 10 uM [2] [fold] | EC50 [1] [µM] | 0.5 mg/kg IV bolus % PTH AUC of saline control (plasma PTH; Table 6) [%] | further results
CC(=O)N[C@@H](CS)C(=O)N[C@H](C)C(=O)N[C@@H](CCCNC(=N)N)C(=O)N[C@H](CCCNC(=N)N)C(=O)N[C@@H](CCCNC(=N)N)C(=O)N[C@H](C)C(=O)N[C@@H](CCCNC(=N)N)C(N)=O [SEQ ID NO: 44, Ac-CaRrRaR-NH2] |  |  |  | fold decrease in potency relative to Ac-carrrar-NH2 (SEQ ID NO:26) ([1]; human CaSR, HEK293): < 4 fold
Ac-c(PEG2-C)rrrrrr-NH2 (XXXXXXX; D-residues) [SEQ ID NO: 59] |  | 0.02 |  | 
CC(=O)N[C@H](CS)C(=O)N[C@H](C)C(=O)N[C@H](CCCNC(=N)N)C(=O)N[C@H](CCCNC(=N)N)C(=O)N[C@H](CCCNC(=N)N)C(=O)N[C@H](C)C(=O)N[C@H](CCCNC(=N)N)C(=O)O [SEQ ID NO: 74, Ac-carrrar-OH] |  | 31 |  | 
CC(=O)N[C@H](CS)C(=O)N[C@H](Cc1ccc(O)cc1)C(=O)NCC(=O)N[C@H](CCCNC(=N)N)C(=O)N[C@H](CCCCN)C(=O)N[C@H](CCCCN)C(=O)N[C@H](CCCNC(=N)N)C(=O)N[C@H](CCCNC(=N)N)C(=O)N[C@H](CCC(N)=O)C(=O)N[C@H](CCCNC(=N)N)C(=O)N[C@H](CCCNC(=N)N)C(=O)N[C@H](CCCNC(=N)N)C(N)=O [SEQ ID NO: 50, Ac-cygrkkrrqrrr-NH2] |  | 2 |  | 
CC(=O)N[C@@H](Cc1ccc(O)cc1)C(=O)NCC(=O)N[C@@H](CCCNC(=N)N)C(=O)N[C@@H](CCCCN)C(=O)N[C@@H](CCCCN)C(=O)N[C@@H](CCCNC(=N)N)C(=O)N[C@@H](CCCNC(=N)N)C(=O)N[C@@H](CCC(N)=O)C(=O)N[C@@H](CCCNC(=N)N)C(=O)N[C@@H](CCCNC(=N)N)C(=O)N[C@@H](CCCNC(=N)N)C(N)=O [SEQ ID NO: 48] |  | 16 |  | 
Ac-c(PEG2-C)arrrar-NH2 (XXXXXXX; D-residues) [SEQ ID NO: 57] |  | 2.3 |  | 
CC(=O)N[C@H](CS)C(=O)N[C@H](C)C(=O)N[C@H](CCCNC(=N)N)C(=O)N[C@H](CCCNC(=N)N)C(=O)N[C@H](CCCNC(=N)N)C(=O)N[C@H](C)C(=O)N[C@H](CCCNC(=N)N)C(=O)N[C@H](C)C(=O)N[C@H](CCCNC(=N)N)C(N)=O [SEQ ID NO: 79, Ac-carrrarar-NH2] (Ac-[dC][dA][dR][dR][dR][dA][dR][dA][dR]-NH2) |  | 13 |  | 
CCCC[C@@H](NC(=O)[C@@H](CCCNC(=N)N)NC(=O)[C@@H](CCCNC(=N)N)NC(=O)[C@@H](CCCNC(=N)N)NC(=O)[C@@H](CCCC)NC(=O)[C@@H](CS)NC(C)=O)C(=O)N[C@H](CCCNC(=N)N)C(N)=O [SEQ ID NO: 130, Ac-c-dNle-rrr-dNle-r-NH2] (Ac-[dC][dNle][dR][dR][dR][dNle][dR]-NH2) | 9.2 |  |  | 0.5 mg/kg IV bolus % PTH AUC of saline control (plasma PTH; Table 7): 54%
CC(=O)N[C@H](CS)C(=O)N[C@H](C)C(=O)N[C@H](CCCNC(=N)N)C(=O)N[C@H](CCCNC(=N)N)C(=O)N[C@H](CCCNC(=N)N)C(=O)N[C@H](Cc1ccccc1)C(=O)N[C@H](CCCNC(=N)N)C(N)=O [SEQ ID NO: 83, Ac-carrrfr-NH2] (Ac-[dC][dA][dR][dR][dR][dF][dR]-NH2) | 4.0 |  | 177 | 

More lines, main results first:

Histamine in vitro Fold change of non-treated at 10 uM [2] [fold] | Compound | EC50 [1] [µM] | 0.5 mg/kg IV bolus % PTH AUC of saline control (plasma PTH; Table 6) [%] | further results
1.1 | CC(=O)N[C@H](CS)C(=O)N[C@@H](C(=O)N[C@H](CCCNC(=N)N)C(=O)N[C@H](CCCNC(=N)N)C(=O)N[C@H](CCCNC(=N)N)C(=O)N[C@H](C)C(=O)N[C@H](CCCNC(=N)N)C(N)=O)[C@H](C)O [SEQ ID NO: 100, Ac-ctrrrar-NH2] (Ac-[dC][dT][dR][dR][dR][dA][dR]-NH2) |  | 23 | 
2.1 | CCC[C@@H](NC(=O)[C@@H](CS)NC(C)=O)C(=O)N[C@H](CCCNC(=N)N)C(=O)N[C@H](CCCNC(=N)N)C(=O)N[C@H](CCCNC(=N)N)C(=O)N[C@H](C)C(=O)N[C@H](CCCNC(=N)N)C(N)=O [SEQ ID NO: 136, Ac-c-dNva-rrrar-NH2] (Ac-[dC][dNva][dR][dR][dR][dA][dR]-NH2) |  |  | 0.5 mg/kg IV bolus % PTH AUC of saline control (plasma PTH; Table 7): 7%
2.2 | CC(=O)N[C@H](CS)C(=O)N[C@H](CC(C)C)C(=O)N[C@H](CCCNC(=N)N)C(=O)N[C@H](CCCNC(=N)N)C(=O)N[C@H](CCCNC(=N)N)C(=O)N[C@H](C)C(=O)N[C@H](CCCNC(=N)N)C(N)=O [SEQ ID NO: 98, Ac-clrrrar-NH2] (Ac-[dC][dL][dR][dR][dR][dA][dR]-NH2) |  | 26 | 
1.9 | CC(=O)N[C@H](CS)C(=O)N[C@H](CCC(N)=O)C(=O)N[C@H](CCCNC(=N)N)C(=O)N[C@H](CCCNC(=N)N)C(=O)N[C@H](CCCNC(=N)N)C(=O)N[C@H](C)C(=O)N[C@H](CCCNC(=N)N)C(N)=O [SEQ ID NO: 99, Ac-cqrrrar-NH2] (Ac-[dC][dQ][dR][dR][dR][dA][dR]-NH2) |  | 24 | 
